“And” between values parts separate entries of the source, which are not always exact repeats. Equal entries are not always repeated.
How the values were obtained:
Assay in all cases: Post-emergence glasshouse herbicide test, visual phytotoxicity
Assay type in all cases: in vivo
Settings in all cases: 13 days
[1] = test system: Abutilon threophrasti (ABUTH)
Protocol: (§1) Seeds of Setaria faberi (SETFA), Echinochloa crus-galli (ECHCG), Digitaria sanguinalis (DIGSA), Lolium perenne (LOLPE), Alopecurus myosuroides (ALOMY), Chenopodium album (CHEAL), Ipomoea hederacea (IPOHE), Stellaria media (STEME), Abutilon threophrasti (ABUTH) and Amaranthus retroflexus (AMARE) were sown in standard sterilised soil in pots. After cultivation for 8 days under controlled conditions in a glasshouse (at 24/19° C., day/night; 16 hours light; no humidity control), the plants were sprayed at 500 l/Ha with an aqueous spray solution derived from the formulation of the technical active ingredients in a small amount of acetone and a solvent and emulsifier mixture referred to as IF50 (11.12% Emulsogen EL360 TM+44.44% N-methylpyrrolidone+44.44% Dowanol DPM glycol ether), to create a 50 g/l solution which was then diluted using 0.2% Genapol X080 (CAS Number: 9043-30-5) as diluent to give the desired final dose of test compound.
(§2) Where active ingredients were applied as mixtures, aqueous spray solutions were prepared as above, containing both active ingredients.
(§3) The test plants were then grown under controlled conditions in a glasshouse (at 24/18° C., day/night; 15 hours light; 50% humidity) and watered twice daily. After 13 days, the test was evaluated visually for percentage phytotoxicity to the plants (where 100=total damage to plant; 0=no damage to plant; and NC=not captured) when compared to control untreated plants. Two to four replicates were applied for each treatment in a randomised block test design.
(§4) 22., E=X+Y−(X*Y/100), where • X=average percent phytotoxicity of herbicide A when applied at a certain rate • Y=average percent phytotoxicity using herbicide B when applied at a certain rate • E=the expected effect of the mixture of herbicides A and B as calculated from the Colby formula.

[2] = test system: Alopecurus myosuroides (ALOMY)
Protocol: as §1, §2, §3, §4

[3] = test system: Amaranthus retroflexus (AMARE)
Protocol: as §1, §2, §3, §4

[4] = test system: Chenopodium album (CHEAL)
Protocol: as §1, §2, §3, §4

[5] = test system: Digitaria sanguinalis (DIGSA)
Protocol: as §1, §2, §3, §4

[6] = test system: Echinochloa crus-galli (ECHCG)
Protocol: as §1, §2, §3, §4

[7] = test system: Ipomoea hederacea (IPOHE)
Protocol: as §1, §2, §3, §4

Lolium perenne (LOLPE) = test system: Lolium perenne (LOLPE)
Protocol: as §1, §2, §3, §4

Setaria faberi (SETFA) = test system: Setaria faberi (SETFA)
Protocol: as §1, §2, §3, §4

Stellaria media (STEME) = test system: Stellaria media (STEME)
Protocol: as §1, §2, §3, §4

SMILES: CC1(C)CN(Cc2ccccc2NS(=O)(=O)C(F)(F)F)C1=O [B-IV]
- percentage phytotoxicity ABUTH ([1]; 31.25 g/ha): 15%
- percentage phytotoxicity ABUTH ([1]; 62.5 g/ha): 3%
- percentage phytotoxicity ABUTH ([1]; 125 g/ha): 13%
- percentage phytotoxicity ABUTH ([1]; 250 g/ha): 45%
- percentage phytotoxicity ABUTH ([1]; 500 g/ha): 60%
- percentage phytotoxicity ALOMY ([2]; 31.25 g/ha): 0%
- percentage phytotoxicity ALOMY ([2]; 62.5 g/ha): 0%
- percentage phytotoxicity ALOMY ([2]; 125 g/ha): 23%
- percentage phytotoxicity ALOMY ([2]; 250 g/ha): 50%
- percentage phytotoxicity ALOMY ([2]; 500 g/ha): 73%
- percentage phytotoxicity AMARE ([3]; 31.25 g/ha): 73%
- percentage phytotoxicity AMARE ([3]; 62.5 g/ha): 80%
- percentage phytotoxicity AMARE ([3]; 125 g/ha): 83%
- percentage phytotoxicity AMARE ([3]; 250 g/ha): 85%
- percentage phytotoxicity AMARE ([3]; 500 g/ha): 83%
- percentage phytotoxicity CHEAL ([4]; 31.25 g/ha): 15%
- percentage phytotoxicity CHEAL ([4]; 62.5 g/ha): 30%
- percentage phytotoxicity CHEAL ([4]; 125 g/ha): 15%
- percentage phytotoxicity CHEAL ([4]; 250 g/ha): 20%
- percentage phytotoxicity CHEAL ([4]; 500 g/ha): 58%
- percentage phytotoxicity DIGSA ([5]; 31.25 g/ha): 0%
- percentage phytotoxicity DIGSA ([5]; 62.5 g/ha): 0%
- percentage phytotoxicity DIGSA ([5]; 125 g/ha): 18%
- percentage phytotoxicity DIGSA ([5]; 250 g/ha): 38%
- percentage phytotoxicity DIGSA ([5]; 500 g/ha): 70%
- percentage phytotoxicity ECHCG ([6]; 31.25 g/ha): 0%
- percentage phytotoxicity ECHCG ([6]; 62.5 g/ha): 0%
- percentage phytotoxicity ECHCG ([6]; 125 g/ha): 45%
- percentage phytotoxicity ECHCG ([6]; 250 g/ha): 53%
- percentage phytotoxicity ECHCG ([6]; 500 g/ha): 63%
- percentage phytotoxicity IPOHE ([7]; 31.25 g/ha): 75%
- percentage phytotoxicity IPOHE ([7]; 62.5 g/ha): 35%
- percentage phytotoxicity IPOHE ([7]; 125 g/ha): 88%
- percentage phytotoxicity IPOHE ([7]; 250 g/ha): 89%
- percentage phytotoxicity IPOHE ([7]; 500 g/ha): 93%
- percentage phytotoxicity LOLPE (Lolium perenne (LOLPE); 31.25 g/ha): 0%
- percentage phytotoxicity LOLPE (Lolium perenne (LOLPE); 62.5 g/ha): 0%
- percentage phytotoxicity LOLPE (Lolium perenne (LOLPE); 125 g/ha): 33%
- percentage phytotoxicity LOLPE (Lolium perenne (LOLPE); 250 g/ha): 48%
- percentage phytotoxicity LOLPE (Lolium perenne (LOLPE); 500 g/ha): 80%
- percentage phytotoxicity SETFA (Setaria faberi (SETFA); 31.25 g/ha): 0%
- percentage phytotoxicity SETFA (Setaria faberi (SETFA); 62.5 g/ha): 0%
- percentage phytotoxicity SETFA (Setaria faberi (SETFA); 125 g/ha): 23% and 22%
- percentage phytotoxicity SETFA (Setaria faberi (SETFA); 250 g/ha): 48%
- percentage phytotoxicity SETFA (Setaria faberi (SETFA); 500 g/ha): 50%
- percentage phytotoxicity STEME (Stellaria media (STEME); 31.25 g/ha): 68%
- percentage phytotoxicity STEME (Stellaria media (STEME); 62.5 g/ha): 78%
- percentage phytotoxicity STEME (Stellaria media (STEME); 125 g/ha): 80%
- percentage phytotoxicity STEME (Stellaria media (STEME); 250 g/ha): 80%
- percentage phytotoxicity STEME (Stellaria media (STEME); 500 g/ha): 83%

SMILES: CN1C[C@H](c2cccc(C(F)(F)F)c2)[C@@H](C(=O)Nc2ccccc2F)C1=O [B-III]
- percentage phytotoxicity ABUTH ([1]; 3.125 g/ha): 10%
- percentage phytotoxicity ABUTH ([1]; 6.25 g/ha): 4%
- percentage phytotoxicity ABUTH ([1]; 12.5 g/ha): 3%
- percentage phytotoxicity ABUTH ([1]; 25 g/ha): 19%
- percentage phytotoxicity ABUTH ([1]; 50 g/ha): 18%
- percentage phytotoxicity AMARE ([3]; 3.125 g/ha): 4%
- percentage phytotoxicity AMARE ([3]; 6.25 g/ha): 6%
- percentage phytotoxicity AMARE ([3]; 12.5 g/ha): 10%
- percentage phytotoxicity AMARE ([3]; 25 g/ha): 21%
- percentage phytotoxicity AMARE ([3]; 50 g/ha): 31%
- percentage phytotoxicity CHEAL ([4]; 3.125 g/ha): 6%
- percentage phytotoxicity CHEAL ([4]; 6.25 g/ha): 10%
- percentage phytotoxicity CHEAL ([4]; 12.5 g/ha): 14%
- percentage phytotoxicity CHEAL ([4]; 25 g/ha): 44%
- percentage phytotoxicity CHEAL ([4]; 50 g/ha): 56%
- percentage phytotoxicity DIGSA ([5]; 3.125 g/ha): 72%
- percentage phytotoxicity DIGSA ([5]; 6.25 g/ha): 74%
- percentage phytotoxicity DIGSA ([5]; 12.5 g/ha): 78%
- percentage phytotoxicity DIGSA ([5]; 25 g/ha): 79%
- percentage phytotoxicity DIGSA ([5]; 50 g/ha): 80%
- percentage phytotoxicity ECHCG ([6]; 3.125 g/ha): 70%
- percentage phytotoxicity ECHCG ([6]; 6.25 g/ha): 70%
- percentage phytotoxicity ECHCG ([6]; 12.5 g/ha): 73%
- percentage phytotoxicity ECHCG ([6]; 25 g/ha): 73%
- percentage phytotoxicity ECHCG ([6]; 50 g/ha): 75%
- percentage phytotoxicity IPOHE ([7]; 3.125 g/ha): 9%
- percentage phytotoxicity IPOHE ([7]; 6.25 g/ha): 11%
- percentage phytotoxicity IPOHE ([7]; 12.5 g/ha): 15%
- percentage phytotoxicity IPOHE ([7]; 25 g/ha): 24%
- percentage phytotoxicity IPOHE ([7]; 50 g/ha): 28%
- percentage phytotoxicity LOLPE (Lolium perenne (LOLPE); 3.125 g/ha): 30%
- percentage phytotoxicity LOLPE (Lolium perenne (LOLPE); 6.25 g/ha): 43%
- percentage phytotoxicity LOLPE (Lolium perenne (LOLPE); 12.5 g/ha): 55%
- percentage phytotoxicity LOLPE (Lolium perenne (LOLPE); 25 g/ha): 70%
- percentage phytotoxicity LOLPE (Lolium perenne (LOLPE); 50 g/ha): 75%
- percentage phytotoxicity SETFA (Setaria faberi (SETFA); 3.125 g/ha): 66%
- percentage phytotoxicity SETFA (Setaria faberi (SETFA); 6.25 g/ha): 68%
- percentage phytotoxicity SETFA (Setaria faberi (SETFA); 12.5 g/ha): 70%
- percentage phytotoxicity SETFA (Setaria faberi (SETFA); 25 g/ha): 74%
- percentage phytotoxicity SETFA (Setaria faberi (SETFA); 50 g/ha): 73%
- percentage phytotoxicity STEME (Stellaria media (STEME); 3.125 g/ha): 13%
- percentage phytotoxicity STEME (Stellaria media (STEME); 6.25 g/ha): 21%
- percentage phytotoxicity STEME (Stellaria media (STEME); 12.5 g/ha): 14%
- percentage phytotoxicity STEME (Stellaria media (STEME); 25 g/ha): 46%
- percentage phytotoxicity STEME (Stellaria media (STEME); 50 g/ha): 71%

Source: patent publication US20230284620A1, “MIXTURES OF PYRIDAZINES AS HERBICIDAL COMPOSITIONS” (SYNGENTA CROP PROTECTION AG, priority 2020, published 2023)
